This is an account of results in patent publication US11617777B2, “Cytotoxic and anti-mitotic compounds, and methods of using the same” (ZYMEWORKS BC INC., priority 2013, dated 2023).

In general, EC50 refers to the concentration giving half of the maximal effect.

Like-named read-outs stand apart in the source and are kept apart here.

The test system of one assay is Capan-1. The assay is described as follows: Cytotoxicity of compounds, CellTiter-Glo. The format is cell-based. To be noted: Homo sapiens, Table 5. From the text:
(§1) FIG. 1 summarizes the data for compounds A, B, C, D, and E when tested using the Human mammary carcinoma cell line HCC1954 or Human T-cell leukemia cell line Jurkat. FIGS. 2-6 show the cytotoxicity data plots for individual compounds A-E. Tables 2-6 summarize the results of additional cytotoxicity assays.
(§2) Cell lines used: Human T-cell leukemia cell line Jurkat (ATCC: TIB-152); HCC1954 (ATCC: CRL. 2338); Human Pancreatic cells lines: AsPC-1 (ATCC: CRL-1682), BxPC-3 (ATCC: CRL.1687), HPAF-II (ATCC: CRL.1997), MiaPaCa2 (ATCC: CRL.1420), PANC-1 (ATCC: CRL.1469), Capan-1 (ATCC: HTB-79), Capan-2 (ATCC: HTB-80) and the Human gastric carcinoma cell line NCI-N87 (ATCC: CRL. 5822); AML-193 (ATCC: CRL.9589), CCRF-CEM (ATCC: CCL-119), DU145 (ATCC: HTB-81), PC-3 (ATCC: CRL.1435), A-431 (ATCC: CRL.1555), HT-29 (ATCC: HTB-38), A-172 (ATCC: CRL.1620), NCI-H358 (ATCC: CRL.5807), A549 (ATCC: CCL-185), Colo-205 (ATCC: CCL-222), MDA-MB-231 (ATCC: HTB-26), OVCAR-3 (ATCC: HTB-161), OV-90 (ATCC: CRL.11732), OE19 (Sigma: 96071721), RT 112/84 (Sigma: 85061106).
(§3) On the day prior to adding compounds, HCC1954 AsPC-1, BxPC-3, HPAF-II, MiaPaCa2, PANC-1, Capan-1, Capan-2 and NCI-N87 cells were added to opaque-walled 96-well tissue culture-treated microtiter plates using complete growth medium at a density of 2500 cells/100 microlitre (uL) of medium. These adherant cell lines cells were incubated for one night at 37° C./5% CO2 to allow the cells to attach to the microtiter plate surface. On the day that compounds were added, Jurkat cells are added to separate 96-well microtiter plates at 2500 cells/100 uL using the same growth medium as HCC1954. Compound were first serially diluted using dimethyl sulfoxide, and then the prepared dilutions are added to complete growth medium at five-times the final concentration—compounds were then titrated 1:3, eight steps. A control with no compound (growth medium alone) was included on each microtiter plate in sextuplicate. The prepared compounds titrations were added (twenty-five uL/well) in triplicate. The cells and compound titrations were incubated at 37° C./5% CO2 for three nights. After the incubation, cell viability is measured using CellTiter-Glo® reagent by adding thirty uL of prepared CellTiter-Glo® to each assay well. The assay is incubated for at least twenty minutes in the dark prior to measuring emitted luminescence using a microplate luminometer (500 ms integration time). The collected relative luminescence units (RLU) are converted to % cytotoxicity using the Growth medium alone control mentioned above (% Cytotoxicity=1−[Well RLU/average medium alone control RLU]).
(§4) GraphPad Prism was used for generation of EC50 values using three parameter non-linear regression curve fitting.
In general terms: ATP-based viability assays read luminescence as a measure of living cells.

For a further assay, the system named is MiaPaCa2. As to the kind of experiment: Cytotoxicity of compounds, CellTiter-Glo. The format is cell-based. To be noted: Homo sapiens.
Source text: as §1, §2, §3, §4

Another assay concerns AsPC-1. As to the kind of experiment: Cytotoxicity of compounds, CellTiter-Glo. The conditions noted are these: Homo sapiens. The format is cell-based.
Source text: as §1, §2, §3, §4

Another assay concerns Capan-2. As to the kind of experiment: Cytotoxicity of compounds, CellTiter-Glo. Format: cell-based. To be noted: Homo sapiens, Table 5.
Source text: as §1, §2, §3, §4

The subject of another assay is BxPC-3. The assay is described as follows: Cytotoxicity of compounds, CellTiter-Glo. To be noted: Homo sapiens. The format is cell-based.
Source text: as §1, §2, §3, §4

The next assay has as its system PANC-1. As to the kind of experiment: Cytotoxicity of compounds, CellTiter-Glo. To be noted: Homo sapiens. The format is cell-based.
Source text: as §1, §2, §3, §4

For a further assay, the system named is NCI-N87. The assay is described as follows: Cytotoxicity of compounds, CellTiter-Glo. To be noted: Homo sapiens. The format is cell-based.
Source text: as §1, §2, §3, §4

A further assay concerns HPAF-II. The assay is described as follows: Cytotoxicity of compounds, CellTiter-Glo. Format: cell-based. To be noted: Homo sapiens.
Source text: as §1, §2, §3, §4

For another assay, the system named is Colo-205. As to the kind of experiment: Cytotoxicity on various cell lines. The format is cell-based. To be noted: Homo sapiens, Table 8.
Source text: as §1, §2, §3, §4

Another assay relates to OE19. The assay is described as follows: Cytotoxicity on various cell lines. Format: cell-based. To be noted: Homo sapiens, Table 8.
Source text: as §1, §2, §3, §4

The test system of the next assay is A-172. The assay is described as follows: Cytotoxicity on various cell lines. Format: cell-based. To be noted: Homo sapiens, Table 8.
Source text: as §1, §2, §3, §4

The subject of another assay is DU145. As to the kind of experiment: Cytotoxicity on various cell lines. The conditions noted are these: Homo sapiens, DU-145, Table 8. The format is cell-based.
Source text: as §1, §2, §3, §4

In a further assay the test system is CCRF-CEM. As to the kind of experiment: Cytotoxicity on various cell lines. The format is cell-based. The conditions noted are these: Homo sapiens, Table 8.
Source text: as §1, §2, §3, §4

In the next assay the test system is AML-193. The assay is described as follows: Cytotoxicity on various cell lines. To be noted: Table 8. The format is cell-based.
Source text: as §1, §2, §3, §4

The test system of another assay is MDA-MB-231. The assay is described as follows: Cytotoxicity on various cell lines. The format is cell-based. The conditions noted are these: Homo sapiens, Table 8.
Source text: as §1, §2, §3, §4

For the next assay, the system named is OV-90. As to the kind of experiment: Cytotoxicity on various cell lines. Format: cell-based. The conditions noted are these: Homo sapiens, Table 8.
Source text: as §1, §2, §3, §4

For the next assay, the system named is HT-29. The assay is described as follows: Cytotoxicity on various cell lines. The format is cell-based. The conditions noted are these: Homo sapiens, Table 8.
Source text: as §1, §2, §3, §4

A further assay relates to OVCAR-3. As to the kind of experiment: Cytotoxicity on various cell lines. The conditions noted are these: Homo sapiens, Table 8. Format: cell-based.
Source text: as §1, §2, §3, §4

In a further assay the test system is RT112/84. As to the kind of experiment: Cytotoxicity on various cell lines. The format is cell-based. The conditions noted are these: Homo sapiens, Table 8.
Source text: as §1, §2, §3, §4

Another assay concerns PC-3. As to the kind of experiment: Cytotoxicity on various cell lines. The format is cell-based. To be noted: Homo sapiens, Table 8.
Source text: as §1, §2, §3, §4

The next assay relates to A-431. As to the kind of experiment: Cytotoxicity on various cell lines. The conditions noted are these: Homo sapiens, Table 8. The format is cell-based.
Source text: as §1, §2, §3, §4

The next assay concerns NCI-H358. As to the kind of experiment: Cytotoxicity on various cell lines. Format: cell-based. To be noted: Homo sapiens, Table 8.
Source text: as §1, §2, §3, §4

Assay [1] concerns HCC1954 cells. The assay is described as follows: Cytotoxicity of compounds, CellTiter-Glo. The format is cell-based. To be noted: Homo sapiens, HCC1954.
Source text: as §2, §3, §4

Assay [2] relates to Jurkat cells. The assay is described as follows: Cytotoxicity assay of SMCC- and LC-SPDP-linked ADCs and free compounds. The format is cell-based. The conditions noted are these: Homo sapiens. On the procedure: (§5) The purified ADCs were then analysed for: total protein content (BCA assay, Pierce microBCA protocol), relative affinity for antigen binding (equilibrium native binding), and selective cytotoxic killing of HER2-positive cells (HCC1954) compared HER2-negative cells (Jurkat).
(§6) On the day prior to adding test articles, HCC1954 cells were added to opaque-walled 96-well tissue culture-treated microtiter plates using complete growth medium at a density of 2500 cells/100 microlitre (uL) of medium. The HCC1954 cells were incubated for one night at 37° C./5% CO2 to allow the cells to attach to the microtiter plate surface. On the day that test articles were added, Jurkat cells are added to separate 96-well microtiter plates at 2500 cells/100 uL using the same growth medium as HCC1954. To compare the ADC killing to that obtained from the free-compounds, the n-acyl sulfonamide compounds were first serially diluted using dimethyl sulfoxide or DMA, and then the prepared dilutions are added to complete growth medium at five-times the final concentration—compounds were then titrated 1:3, eight steps. To test the ADCs, they were diluted directly in growth medium at five-times the final concentration—ADCs were then titrated 1:3, eight steps. A control with no test article present (growth medium alone) was included on each microtiter plate in sextuplicate. The prepared compound/ADC titrations were added (twenty-five uL/well) in triplicate to both the HCC1954 cells and Jurkat cells. The cells and titrations were incubated at 37° C./5% CO2 for three nights. After the incubation, cell viability was measured using CellTiter-Glo® reagent by adding thirty uL of prepared CellTiter-Glo® to each assay well. The assay was incubated for at least twenty minutes in the dark prior to measuring emitted luminescence using a microplate luminometer (500 ms integration time). The collected relative luminescence units (RLU) were converted to % cytotoxicity using the Growth medium alone control mentioned above (% Cytotoxicity=1−[Well RLU/average medium alone control RLU]).

The test system of assay [3] is HCC1954 cells. The assay is described as above. Format: cell-based. The conditions noted are these: Homo sapiens, HCC1954, Table 9, Coupling #1, read-out: HCC1954 Best-fit EC50. On the procedure:
as §5, §6

Assay [4] has as its system Jurkat cells. As to the kind of experiment: Cytotoxicity of compounds, CellTiter-Glo. To be noted: Homo sapiens, Jurkat. The format is cell-based, Human. The procedure, abridged:
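HCC1954 plated at 2500 cells/100 uL and attached overnight; Jurkat plated at 2500 cells/100 uL on the day of dosing. Cells exposed to 8-step 1:3 compound titrations for three nights at 37° C./5% CO2, in triplicate. CellTiter-Glo luminescence converted to % cytotoxicity versus medium-only control; EC50 by three-parameter nonlinear regression.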

As to `CN[C@H](C(=O)N[C@H](C(=O)N(C)[C@H](/C=C(\C)C(=O)NS(=O)(=O)Cc1ccccc1)C(C)C)C(C)(C)C)C(C)(C)c1ccccc1` [Compound 14, (S,E)-N-(benzylsulfonyl)-2,5-dimethyl-4-((S)—N,3,3-trimethyl-2-((S)-3-methyl-2-(methylamino)-3-phenylbutanamido)butanamido)hex-2-enamide], the half-maximal effective concentration (EC50) is 2.08 nM in the assay on Capan-1; 0.204 nM with MiaPaCa2 (MIA PaCa-2, Table 5, MinPaCa2, read-out: Cytotoxicity (EC50) MinPaCa2); 0.332 nM in the assay with MiaPaCa2 (Table 8, Mia PaCa-2, read-out: (EC50)); 0.206 nM in the assay on AsPC-1 (ASPC1, Table 5, read-out: Cytotoxicity (EC50) AsPC-1); 0.334 nM in the assay on AsPC-1 (ASPC1, Table 8, read-out: (EC50)); 1.1 nM in the assay on Capan-2. In addition, the concentration giving a half-maximal response (EC50) is 0.0458 nM in the assay with BxPC-3 (Table 5, read-out: Cytotoxicity (EC50) BxPC-3); 0.196 nM in the assay with BxPC-3 (Table 8, read-out: (EC50)); 1.36 nM in the assay on PANC-1 (Table 5, read-out: Cytotoxicity (EC50) PANC-1); 0.759 nM with PANC-1 (Table 8, read-out: (EC50)); 0.175 nM in the assay with NCI-N87 (Table 5, read-out: Cytotoxicity (EC50) NCI-N87); 0.325 nM with NCI-N87 (Table 8, read-out: (EC50)). The EC50 in the assay on HPAF-II (Table 5, read-out: Cytotoxicity (EC50) HPAF-II) was 0.172 nM; in the assay with HPAF-II (Table 8, read-out: (EC50)), ~0.385 nM; with Colo-205, ~0.317 nM; in the assay with OE19, 0.21 nM; in the assay on A-172 it was 0.598 nM; in the assay on DU145 it was 0.649 nM. The EC50 was 0.13 nM in the assay with CCRF-CEM; 0.191 nM in the assay with AML-193; 1.24 nM with MDA-MB-231; 0.515 nM in the assay on OV-90; 0.167 nM in the assay with HT-29; 0.09 nM in the assay with OVCAR-3. Moreover, the concentration giving a half-maximal response (EC50) is 0.178 nM with RT112/84; 0.455 nM in the assay on PC-3; 0.191 nM in the assay with A-431; 0.311 nM in the assay on NCI-H358; 0.131 nM in the assay on HCC1954 cells [1] (Table 8, HCC-1954, read-out: (EC50)).
As for `CN[C@H](C(=O)N[C@H](C(=O)N(C)[C@H](/C=C(\C)C(=O)NS(=O)(=O)CCCS)C(C)C)C(C)(C)C)C(C)(C)c1ccccc1` [Compound A, (S,E)-N-(3-mercaptopropylsulfonyl)-2,5-dimethyl-4-((S)—N,3,3-trimethyl-2-((S)-3-methyl-2-(methylamino)-3-phenylbutanamido)butanamido)hex-2-enamide], the half-maximal effective concentration (EC50) with Jurkat cells [2] (Table 9, Coupling #1, read-out: Jurkat Best-fit EC50) came out at 1.1 nM; in the assay with Jurkat cells [2] (Table 10, Coupling #2, read-out: Jurkat Best-fit EC50) it was 0.78 nM; with HCC1954 cells [3] it was 2.1 nM; with Jurkat cells [4] (Table 1, Jurkat cells (HER2−), three nights, read-out: Jurkat cells (HER2−) EC50) it was 0.78 nM; with Jurkat cells [4] (Table 2, read-out: Jurkat EC50) it was 5 nM; in the assay on Jurkat cells [4] (Table 3, Cytotoxicity of Compounds on Jurkat Cells, read-out: EC50), 4.5 nM. Also, the EC50 with HCC1954 cells [1] (Table 4, Cytotoxicity of Compounds on HCC-1954 Cells, read-out: EC50) amounted to 2.1 nM; with HCC1954 cells [1] (Table 2, read-out: HCC1954 EC50), 3 nM.
